This test has as its system phenylquinone-induced writhing reaction. Briefly: Phenylquinone-induced writhing test on mice. The format is in vivo. The conditions noted are these: Mus musculus, male NMRI mice; for ED50: oral administration 30 min before phenylquinone i.p., dose with 50% inhibition of writhing reaction; for inhibition at 25 mg/kg: 25 mg/kg per os, 30 min before phenylquinone i.p. As to the method:
The analgesic effectiveness of the compounds according to the invention was investigated in the phenylquinone-induced writhing test, modified according to I. C. Hendershot, J. Forsaith in J. Pharmacol. Exptl. Ther. 125, 237 (1959), on mice. Male NMRI mice with a weight between 25 and 30 g were used for this purpose. For each dose of substance, each 10 animals received, 30 minutes after the oral administration of a compound according to the invention, 0.3 ml per mouse of an 0.02% aqueous phenylquinone solution (phenylbenzoquinone manufactured by Sigma, Deisenhofen; solution prepared with the addition of 5% ethanol and kept on a water bath at 45° C.) administered intraperitoneally. Thereafter the animals were placed individually in observation cages. The number of pain-induced stretching movements (writhing reaction-straightening of the body with stretching of the rear extremities) was counted with the aid of a push-button counter. The Ed50 value (effective dose with 50% inhibition of writhing reaction) was calculated with a 95% confidence limit by means of regression analysis (evaluation program supplied by Martens EDV-Service, Eckental) from the dose-dependent decrease in the writhing reaction, by comparison with mice tested in parallel to which only phenylquinone had been administered.
On the technique in general: Writhing tests count abdominal constrictions after an irritant is injected.

Each structure is given as a SMILES string. Structures can show the parent of a compound that is named as a salt.

Molecule `CC[C@](O)(c1ccc(Cl)c(Cl)c1)[C@H](C)CN(C)C.Cl` (racemic) [(2), (2RS,3RS)-3-(3,4-dichlorophenyl)-1-dimethylamino-2-methylpentan-3-ol Hydrochloride] showed a median effective dose (ED50) of 13.2 mg/kg.

On to `COc1cccc([C@](C)(O)[C@H](C)CN(C)C)c1` (racemic) [(15), Hydrochloride], for which the ED50 came out at 3.8 mg/kg. Turning to `CC[C@H](c1cccc(O)c1)[C@H](C)CN(C)C.Cl` [(+21), (+)-(1S,2R 2S)-3-(3-dimethylamino-1-ethyl-2-methylpropyl)-phenol hydrochloride], the ED50 is 1.9 mg/kg.

As to `C[C@H](CN(C)C)[C@@](C)(O)c1cccc(O)c1` [(+17), (+)-(1R,2R)-3-(3-dimethylamino-1-hydroxy-1,2-dimethylpropyl)-phenolhydrochloride], the inhibition at 25 mg/kg was 97.2%. `CC[C@](O)(c1cccc(O)c1)[C@H](C)CN(C)C` [(+16), (+) (2S,3S 1R,2R)-3-(dimethylamino-1-ethyl-1-hydroxy-2-methylpropyl)-phenol Hydrochloride] came in with an ED50 of 1 mg/kg. In turn, `CC[C@](O)(c1cccc(F)c1)[C@H](C)CN(C)C.Cl` (racemic) [(7), (2RS, 3RS)-1-dimethylamino-3-(3-fluorophenyl)-2-methylpentan-3-ol Hydrochloride] came in with a 50% effective dose (ED50) of 27.3 mg/kg. Turning to `COc1cccc([C@](C)(O)[C@H](C)CN(C)C)c1` [(+15), Hydrochloride], the inhibition at 25 mg/kg stood at 95.2%. The molecule `CC[C@](O)(c1cccc(SC)c1)[C@H](C)CN(C)C.Cl` (racemic) [(9), (2RS,3RS)-1-dimethylamino-2-methyl-3-(3-methylsulphanylphenyl)-pentan-3-ol Hydrochloride] registered an ED50 of 12.8 mg/kg. The same measure, in the same setting: under `CCCC(O)(CCN(C)C)c1cccc(OC)c1.Cl` (racemic) [(12), (3RS)-1-dimethylamino-3-(3-methoxyphenyl)-hexan-3-ol Hydrochloride] stands 19.9 mg/kg. Consider `CC[C@@](O)(c1cccc(O)c1)[C@@H](C)CN(C)C` [(−16), (-) (2S,3S) 1S,2S)-3-(dimethylamino-1-ethyl-1-hydroxy-2-methylpropyl)-phenol Hydrochloride], for which the median effective dose (ED50) turned out to be 16.1 mg/kg. The same measure, in the same setting: next, `CC[C@](O)(c1cccc(C(F)F)c1)[C@H](C)CN(C)C.Cl` (racemic) [(8), (2RS,3RS)-3-(3-difluoromethylphenyl)-1-dimethylamino-2-methylpentan-3-ol Hydrochloride]: 12.9 mg/kg. Turning to `CC[C@](O)(c1cccc(C)c1)[C@H](C)CN(C)C.Cl` (racemic) [(6), (2RS,3RS)-1-dimethylamino-2-methyl-3-(3-m-tolyl)-pentan-3-ol Hydrochloride], it took a dose of 11.8 mg/kg to reach the 50% effect level (ED50).

On to `CC[C@](O)(c1cccc(OC)c1)[C@H](C)CN(C)C.Cl` (racemic) [(1), (2RS,3RS)-1-dimethylamino-3-(3-methoxyphenyl)-2-methylpentan-3-ol Hydrochloride], for which the ED50 amounted to 5.8 mg/kg. Molecule `C[C@@H](CN(C)C)[C@](C)(O)c1cccc(O)c1` [(−17), (−)-(1S,2S)-3-(3-dimethylamino-1-hydroxy-1,2-dimethylpropyl)-phenol Hydrochloride] returned an inhibition at 25 mg/kg of 58.3%. For the molecule `CC[C@](O)(c1cccc(Cl)c1)[C@H](C)CN(C)C.Cl` (racemic) [(4), (2RS,3RS)-3-(3-chlorophenyl)-1-dimethylamino-2-methylpentan-3-ol Hydrochloride], the ED50 was found to be 15.5 mg/kg.

In turn, `CC[C@@](O)(c1cccc(OC)c1)[C@@H](C)CN(C)C` [(−1), (−)-(2S,3S)-1-dimethylamino-3-(3-methoxyphenyl)-2-methylpentan-3-ol Hydrochloride] had a median effective dose (ED50) of 22.3 mg/kg. The same measure, in the same setting: under `CC[C@](O)(c1ccc2ccoc2c1)[C@H](C)CN(C)C.Cl` (racemic) [(10), (2RS,3RS)-3-benzofuran-6-yl-1-dimethylamino-2-methylpentan-3-ol Hydrochloride] stands 12.9 mg/kg. Molecule `CC[C@](O)(c1cccc(OC(C)C)c1)[C@H](C)CN(C)C` (racemic) [(3), (2RS,3RS)-3-(3-isopropoxyphenyl)-1-dimethylamino-2-methylpentan-3-ol Hydrochloride] had an inhibition at 25 mg/kg of 81.3%. On to `CC[C@](O)(c1cccc(O)c1)[C@H](C)CN(C)C` (racemic) [(16), (2RS,3RS)-3-(3-dimethylamino-1-ethyl-1-hydroxy-2-methylpropyl)-phenol Hydrochloride], for which at 25 mg/kg the inhibition was 100%. The molecule `COc1cccc(C(O)(CCN(C)C)C(C)(C)C)c1.Cl` (racemic) [(14), (3RS)-1-dimethylamino-3-(3-methoxyphenyl)-4,4-dimethylpentan-3-ol Hydrochloride] showed an ED50 of 10.5 mg/kg.

With `CC[C@](O)(c1cccc(C(F)(F)F)c1)[C@H](C)CN(C)C.Cl` (racemic) [(5), (2RS,3RS)-1-dimethylamino-2-methyl-3-(3-trifluoromethylphenyl)-pentan-3-ol Hydrochloride], the median effective dose (ED50) came to 8.3 mg/kg. On the same count and under the same terms, next, `CC[C@](O)(c1cccc(OC)c1)[C@H](C)CN(C)C` [(+1), (+)-(2R,3R)-1-dimethylamino-3-(3-methoxyphenyl)-2-methylpentan-3-ol Hydrochloride]: 1.1 mg/kg. Molecule `CC[C@](F)(c1cccc(O)c1)[C@H](C)CN(C)C.Cl` [(+18), (+)-(1R,2R)-3-(3-dimethylamino-1-ethyl-1-fluoro-2-methylpropyl)-phenol Hydrochloride] gave an ED50 of 15.7 mg/kg.

As usually defined, the ED50 is the midpoint of the dose-response relation. High values mean a need for a large dose, low ones an effect at a small dose. As usually defined, the inhibition is the drop in the measured response relative to a control, in per cent. Higher therefore signals strong suppression.

These data come from patent USRE39593E1 (Gruenenthal GmbH, priority 1994, dated 2007).
